Measured values reported in patent publication US20070009529A1, “Agents that dissolve arterial thrombi” (New York University, priority 2002, published 2007).
Entries after “also recorded” stand apart in the source; their conditions may differ. Where two headings read alike, the source gives them in different places. *: point of attachment. Biotin = O=C1N[C@H]2[C@H](CS[C@H]2CCCCC(=O)*)N1

Key:
platelets [1] = test: Effect of inhibitors on anti-GPIIIa49-66 Ab-induced platelet particle formation / oxidative fragmentation; assay type: cell-based, human; set-up: effect on Ab-induced platelet particle formation: unit of the concentration uncertain
Protocol: Induction of Platelet Particles. […] 1×10^7 gel-filtered platelets/ml were labelled with an anti-GPIIb-FITC monoclonal Ab (MoAb) (3B2) or an anti-GPIIIa-FITC MoAb (Ancell, Bayport, Minn.), 10 ug/ml for 30 min at 4° C., centrifuged at 1000 g×6 min at room temperature, and resuspended in Tyrodes buffer. […] (see below).
Debris and dead cells were excluded using scatter gates. Only cells with low orthogonal light scattering were included in the sorting gates. Gates were adjusted for control platelets by exclusion of other blood cells. Intact platelets were monitored in the right upper quadrant (RUQ) with the Y-axis measuring forward-scatter and the X-axis measuring fluorescence. A shift in the fluorescent particles from RUQ to LUQ reflected % platelet particle induction of 10,000 counted platelets/particles.
However, a recent report by Lerner and coworkers [19]provided evidence that Ab's in general are capable of inducing peroxide formation from an assortment of Ag's depending upon the tryptophan and cysteine composition and orientation. […] This hypothesis was tested with the use of diphenyleneiodonium (DPI), an inhibitor of NADH/NADPH oxidase, as well as other flavoprotein oxidases.

platelets [2] = test: Platelet oxidation/fragmentation induced independently of anti-GPIIIa49-66 (DCHF-loaded platelets); assay type: cell-based
[3] = system: p47phox(−/−), gp91phox(−/−)KO, 12-LO(−/−)KO mouse platelets; test: Platelet oxidation in NADPH oxidase and 12-LO KO mouse platelets; assay type: cell-based; details: gp91phox(−/−)KO and 12-LO(−/−)KO mouse platelets
Protocol: It has also been discovered that platelet oxidation/fragmentation can be induced independently of anti-GPIIIa49-66 by […] A23187, a Ca^++ ionophore, or 0.4 μM PMA, a protein kinase C activator. […] Their reactivity is inhibited by the oxidation scavengers catalase (H2O2) and DPI (diphenylene iodonium, an inhibitor of NADPH-oxidase), and is absent in NADPH oxidase p47phox(−/−), gp91phox(−/−)KO as well as 12-LO(−/−)KO mouse platelets. Thus, anti-GPIIIa49-66 could be inducing the intracellular effects of ionophore and PMA.

platelets [4] = test: Ca++ flux (fura-2, AM) in activation of oxidative platelet death
mice = details: earlier reports [10], [14]; cited from earlier work
platelets [5] = test: Inhibition of HUVEC ADAMTS-18 induced platelet oxidation fragmentation; assay type: cell-based; details: single agent, n=7
Text: Recombinant ADAMTS-18 was then made with the expression vector pBudCE4.1 in 293T cells. This peptide induced platelet 12(S)—HETE and oxidation/fragmentation in an identical kinetic fashion as anti-GPIIIa49-66 antibody. Both expressed rADAMTS-18, and HUVEC conditioned media ADAMTS-18 could be activated by thrombin (0.5μ/mL and then neutralized with hirudin), with optimum effect at one hour (n=4). HUVEC ADAMTS-18 induced oxidation fragmentation could be inhibited about 50% by an scFV antibody raised against the ADAMTS-18 (18-mer) peptide as well as GPIIIa49-66 peptide, as well as RGDS (GPIIIa ligand binding site) (n=7).

[6] = inhibitor at 2 (unit uncertain)
[7] = 4 Hrs, doubling concentrations from 50 uM/ml catalase and 5 uM/ml DPI, no UV/light irradiation

O=CC[C@@H](O)[C@H](O)[C@H](O)CO [2-deoxyglucose]
effect on Ab-induced platelet particle formation (platelets [1]; inhibitor at 3 (unit uncertain)): unsuccessful

CNc1ccc2oc(C[C@H]3O[C@@]4(CC[C@H]3C)O[C@H]([C@H](C)C(=O)c3ccc[nH]3)[C@H](C)C[C@H]4C)nc2c1C(=O)O [A23187, calcimycin]
induction of platelet oxidation/fragmentation (platelets [2]): induced | oxidation of platelets loaded with the oxidative fluorochrome DCHF (platelets [2]): induce oxidation | reactivity (platelet oxidation) in KO mouse platelets [3]: absent

O=C(O)CN(CC(=O)O)c1ccccc1OCCOc1ccccc1N(CC(=O)O)CC(=O)O [BAPTA]
inhibition of Ca++ flux (platelets [4]; 10 microM): completely inhibited

COc1cc2c(c(OC)c1OC)-c1ccc(OC)c(=O)cc1[C@@H](NC(C)=O)CC2 [Colchicine]
effect on Ab-induced platelet particle formation (platelets [1]; [6]): unsuccessful

c1ccc2c(c1)[I+]c1ccccc1-2 [DPI, diphenyleneiodonium]
effect of oxidation scavenger on reactivity of A23187 and PMA (platelets [2]): inhibited | effect on Ab-induced platelet particle formation (platelets [1]; [7]): inhibition; also recorded: inhibited

O=C(O)CN(CCOCCOCCN(CC(=O)O)CC(=O)O)CC(=O)O [EGTA, ethylenebis(oxyethylenenitrilo)tetraacetic acid]
inhibition of Ca++ flux (platelets [4]; 100 μM): completely inhibited

COC(=O)CC(NC(=O)OC(C)(C)C)C(=O)CF (stereo not drawn) [FK-011]
effect on Ab-induced platelet particle formation (platelets [1]; inhibitor at 100 uM): unsuccessful

CC1CNCCN1S(=O)(=O)c1cccc2cnccc12 (stereo not drawn) [H-7]
effect on Ab-induced platelet particle formation (platelets [1]; inhibitor at 40 uM): unsuccessful

[N-]=[N+]=[N-].[Na+] [NaAz]
effect on Ab-induced platelet particle formation (platelets [1]): unsuccessful

CCCCC[C@H](O)/C=C/[C@H]1[C@H](O)CC(=O)[C@@H]1CCCCCCC(=O)O [PGE1]
oxidative fragmentation/death in the presence of the agent (platelets [1]; agent at 1 μM, n=6): not induced

CCCCCCCCCCCCCC(=O)O[C@@H]1[C@@H](C)[C@@]2(O)[C@@H](C=C(CO)C[C@]3(O)C(=O)C(C)=C[C@@H]23)[C@@H]2C(C)(C)[C@]12OC(C)=O [PMA, phorbol 12-myristate 13-acetate]
oxidation of platelets loaded with the oxidative fluorochrome DCHF (platelets [2]): induce oxidation | induction of platelet oxidation/fragmentation (platelets [2]; 0.4 μM): induced | reactivity (platelet oxidation) in KO mouse platelets [3]: absent

O=S(=O)(F)Cc1ccccc1 [PMSF]
effect on Ab-induced platelet particle formation (platelets [1]; [6]): unsuccessful

Oc1ncnc2[nH]ncc12 [allopurinol]
effect on Ab-induced platelet particle formation (platelets [1]; inhibitor at 200 uM): failed to inhibit

C=C1[C@@H](C)[C@H]2[C@H](Cc3ccccc3)NC(=O)[C@]23[C@H](OC(C)=O)/C=C/[C@@](C)(O)C(=O)[C@@H](C)C/C=C/[C@H]3[C@@H]1O [cytochalasin D]
effect on Ab-induced platelet particle formation (platelets [1]; inhibitor at 10 uM): unsuccessful

COc1ccc2c(c1)c(CC(=O)O)c(C)n2C(=O)c1ccc(Cl)cc1 [indomethacin]
effect on Ab-induced platelet particle formation (platelets [1]; inhibitor at 20 uM): failed to inhibit

CC(=O)N[C@@H](CC(C)C)C(=O)N[C@@H](CC(C)C)C(=O)N[C@H](C=O)CCCNC(=N)N [leupeptin]
effect on Ab-induced platelet particle formation (platelets [1]; inhibitor at 5 ug/ml): unsuccessful

CN[C@@H]1C[C@H]2O[C@@](C)([C@@H]1OC)n1c3ccccc3c3c4c(c5c6ccccc6n2c5c31)C(=O)NC4 [staurosporine]
effect on Ab-induced platelet particle formation (platelets [1]; inhibitor at 200 uM): unsuccessful

CC[C@]1(O)C[C@@H]2CN(CCc3c([nH]c4ccccc34)[C@@](C(=O)OC)(c3cc4c(cc3OC)N(C)[C@H]3[C@@](O)(C(=O)OC)[C@H](OC(C)=O)[C@]5(CC)C=CCN6CC[C@]43[C@@H]65)C2)C1 [vinblastine]
effect on Ab-induced platelet particle formation (platelets [1]; inhibitor at 0.2 (unit uncertain)): unsuccessful

CAPESIEFPVSEARVLED [GPIIIa49-66 peptide]
prevention or reversal of murine thrombocytopenia induced by anti-GPIIIa49-66 Ab (mice): prevented or reversed | inhibition of HUVEC ADAMTS-18 induced oxidation fragmentation (platelets [5]): about 50%

RGDS
inhibition of HUVEC ADAMTS-18 induced oxidation fragmentation (platelets [5]): about 50%

bio-VQTRSVHCVQQGRPSSSC—OH (Biotin-VQTRSVHCVQQGRPSSSC-OH; cysteine pairing not given here) [18-mer peptide from the C-terminal TSP motif of ADAMTS-18, conjugated to biotin]
platelet oxidation/fragmentation (platelets [2]; peptide alone): no effect | platelet oxidation/fragmentation (platelets [2]; peptide clustered with an anti-biotin antibody, n=6): did induce oxidation/fragmentation

calpastatin
effect on Ab-induced platelet particle formation (platelets [1]; inhibitor at 100 uM): unsuccessful

catalase
effect of oxidation scavenger on reactivity of A23187 and PMA (platelets [2]): inhibited | effect on Ab-induced platelet particle formation (platelets [1]; [7]): could inhibit the reaction; also recorded: inhibited

superoxide dismutase
effect on Ab-induced platelet particle formation (platelets [1]; [7]): inhibited

B1: HUVEC conditioned media ADAMTS-18: ADAMTS-18 in HUVEC conditioned media (protein, UniProt Q8TE60 285-1221, looked up)
A disintegrin and …: SAGKSQKGLNVETLVVADKKMVEKHGKGNVTTYILTVMNMVSGLFKDGTIGSDINVVVVSLILLEQEPGGLLINHHADQSLNSFCQWQSALIGKNGKRHDHAILLTGFDICSWKNEPCDTLGFAPISGMCSKYRSCTINEDTGLGLAFTIAHESGHNFGMIHDGEGNPCRKAEGNIMSPTLTGNNGVFSWSSCSRQYLKKFLSTPQAGCLVDEPKQAGQYKYPDKLPGQIYDADTQCKWQFGAKAKLCSLGFVKDICKSLWCHRVGHRCETKFMPAAEGTVCGLSMWCRQGQCVKFGELGPRPIHGQWSAWSKWSECSRTCGGGVKFQERHCNNPKPQYGGLFCPGSSRIYQLCNINPCNENSLDFRAQQCAEYNSKPFRGWFYQWKPYTKVEEEDRCKLYCKAENFEFFFAMSGKVKDGTPCSPNKNDVCIDGVCELVGCDHELGSKAVSDACGVCKGDNSTCKFYKGLYLNQHKANEYYPVVLIPAGARSIEIQELQVSSSYLAVRSLSQKYYLTGGWSIDWPGEFPFAGTTFEYQRSFNRPERLYAPGPTNETLVFEILMQGKNPGIAWKYALPKVMNGTPPATKRPAYTWSIVQSECSVSCGGGYINVKAICLRDQNTQVNSSFCSAKTKPVTEPKICNAFSCPAYWMPGEWSTCSKACAGGQQSRKIQCVQKKPFQKEEAVLHSLCPVSTPTQVQACNSHACPPQWSLGPWSQCSKTCGRGVRKRELLCKGSAAETLPESQCTSLPRPELQEGCVLGRCPKNSRLQWVASSWSECSATCGLGVRKREMKCSEKGFQGKLITFPERRCRNIKKPNLDLEETCNRRACPAHPVYNMVAGWYSLPWQQCTVTCGGGVQTRSVHCVQQGRPSSSCLLHQKPPVLRACNTNFCPAPEKREDPSCVDFFNWCHLVPQHGVCNHKFYGKQCCKSCTRKI
modifications: natural, HUVEC conditioned media
notes: ADAMTS-18 in HUVEC conditioned media
time of optimum effect of activation by thrombin (platelets [2]; thrombin 0.5μ/mL, then neutralized with hirudin, n=4): one
